Reference: ChEMBL document CHEMBL4033724, “Novel sulfonamide-containing 2-indolinones that selectively inhibit tumor-associated alpha carbonic anhydrases” (Bioorg Med Chem, 2017)

Experiments:
Carbonic anhydrase 9 = Carbonic anhydrase 9 (Homo sapiens, UniProt Q16790); assay: Inhibition of recombinant human membrane bound carbonic anhydrase 9 expressed in Escherichia coli pretreated for 15 mins prior to testing by stopped-flow assay
Carbonic anhydrase 12 = Carbonic anhydrase 12 (Homo sapiens, UniProt O43570); assay: Inhibition of recombinant human […] expressed in Escherichia coli pretreated for 15 mins prior to testing by stopped-flow assay
Carbonic anhydrase 2 = Carbonic anhydrase 2 (Homo sapiens, UniProt P00918); assay: Inhibition of recombinant human cytosolic carbonic anhydrase 2 expressed in Escherichia coli pretreated for 15 mins prior to testing by stopped-flow assay
Carbonic anhydrase 1 = Carbonic anhydrase 1 (Homo sapiens, UniProt P00915); assay: Inhibition of recombinant human cytosolic carbonic anhydrase 1 expressed in Escherichia coli pretreated for 15 mins prior to testing by stopped-flow assay
Sequence of Carbonic anhydrase 1 (P00915 whole entry): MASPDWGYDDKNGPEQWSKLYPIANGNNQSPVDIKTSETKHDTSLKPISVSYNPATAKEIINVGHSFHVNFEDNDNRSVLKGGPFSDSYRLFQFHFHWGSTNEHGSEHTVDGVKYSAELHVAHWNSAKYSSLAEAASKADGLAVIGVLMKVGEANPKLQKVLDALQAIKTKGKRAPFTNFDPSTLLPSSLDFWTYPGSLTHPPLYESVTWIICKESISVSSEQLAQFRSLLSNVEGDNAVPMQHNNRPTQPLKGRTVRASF

Sequence of Carbonic anhydrase 12 (O43570 whole entry): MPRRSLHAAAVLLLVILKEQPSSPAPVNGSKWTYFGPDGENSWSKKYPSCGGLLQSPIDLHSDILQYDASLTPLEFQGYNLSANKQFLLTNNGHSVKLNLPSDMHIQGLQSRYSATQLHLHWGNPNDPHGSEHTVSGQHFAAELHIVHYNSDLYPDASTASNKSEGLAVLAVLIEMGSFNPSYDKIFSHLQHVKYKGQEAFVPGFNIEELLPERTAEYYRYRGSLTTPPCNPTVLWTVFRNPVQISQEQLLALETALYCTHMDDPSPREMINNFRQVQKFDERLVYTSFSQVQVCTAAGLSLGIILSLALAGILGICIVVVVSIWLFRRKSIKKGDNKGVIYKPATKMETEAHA

SMILES | Ki (Carbonic anhydrase 9) | Ki (Carbonic anhydrase 12) | Ki (Carbonic anhydrase 2) | Ki (Carbonic anhydrase 1)
NS(=O)(=O)c1ccc(NC(=S)N/N=C2\C(=O)Nc3ccc(Cl)cc32)cc1 | 0.0542 µM | 0.0058 µM | 0.616 µM | 0.65 µM
NS(=O)(=O)c1ccc(NC(=S)N/N=C2\C(=O)Nc3c(Br)cc(Br)cc32)cc1 | 0.0581 µM | 0.0063 µM | 0.687 µM | 0.698 µM
NS(=O)(=O)c1ccc(NC(=S)N/N=C2\C(=O)Nc3ccc(I)cc32)cc1 | 0.0168 µM | 0.0059 µM | 0.399 µM | 0.624 µM
Cc1ccc2c(c1)/C(=N/NC(=S)Nc1ccc(S(N)(=O)=O)cc1)C(=O)N2 | 0.0623 µM | 0.0057 µM | 0.735 µM | 0.744 µM
NS(=O)(=O)c1ccc(NC(=S)N/N=C2\C(=O)Nc3c(Cl)cccc32)cc1 | 0.0133 µM | 0.0873 µM | 0.426 µM | 0.0761 µM
NS(=O)(=O)c1ccc(NC(=S)N/N=C2\C(=O)Nc3ccc(S(=O)(=O)O)cc32)cc1 | 0.0344 µM | 0.0012 µM | 0.897 µM | 0.901 µM
NS(=O)(=O)c1ccc(NC(=S)N/N=C2\C(=O)Nc3ccc(F)cc32)cc1 | 0.0388 µM | 0.0045 µM | 0.551 µM | 0.558 µM
NS(=O)(=O)c1ccc(NC(=S)N/N=C2\C(=O)Nc3ccc(Br)cc32)cc1 | 0.0648 µM | 0.0061 µM | 0.851 µM | 0.882 µM
NS(=O)(=O)c1ccc(NC(=S)N/N=C2\C(=O)Nc3ccccc32)cc1 | 0.0663 µM | 0.0069 µM | 0.936 µM | 1.19 µM
NS(=O)(=O)c1ccc(NC(=S)N/N=C2\C(=O)Nc3c(Cl)cc(Cl)cc32)cc1 | 0.0213 µM | 0.0823 µM | 0.782 µM | 0.554 µM
NS(=O)(=O)c1ccc(NC(=S)N/N=C2\C(=O)Nc3ccc([N+](=O)[O-])cc32)cc1 | 0.0195 µM | 0.0041 µM | 0.032 µM | 0.0688 µM
NS(=O)(=O)c1ccc(NC(=S)N/N=C2\C(=O)Nc3ccc(OC(F)(F)F)cc32)cc1 | 0.0457 µM | 0.006 µM | 0.42 µM | 0.481 µM
NS(=O)(=O)c1ccc(NC(=S)N/N=C2\C(=O)Nc3c(F)cccc32)cc1 | 0.0208 µM | 0.0455 µM | 0.0269 µM | 0.0576 µM
